Assays:
[1] = test system: corn; assay: Test A preemergence; type: in vivo, Zea mays
Description: (§1) Seeds of plant species selected from barnyardgrass (Echinochloa crusgalli), blackgrass (Alopecurus myosuroides), corn (Zea mays), foxtail, giant (giant foxtail, Setaria faberi), goosegrass (Eleusine indica), kochia (Bassia scoparia), oat, wild (wild oat, Avena fatua), pigweed, palmer (palmer amaranth, palmer pigweed, Amaranthus palmeri), Pigweed, Redroot (redroot pigweed, Amaranthus retroflexus), ragweed (common ragweed, Ambrosia artemisiifolia), ryegrass, Italian (italian ryegrass, Lolium multiflorum), soybean (Glycine max), and wheat (Triticum aestivum) were planted into a blend of loam soil and sand and treated preemergence with a directed soil spray using test chemicals formulated in a non-phytotoxic solvent mixture which included a surfactant. At the same time, plants selected from these crops and weed species and also galium (catchweed bedstraw, Galium aparine) and horseweed (Erigeron canadensis) were planted in pots containing the same blend of loam soil and sand and treated with postemergence applications of test chemicals formulated in the same manner. Plants ranged in height from 2 to 10 cm and were in the one- to two-leaf stage for the postemergence treatment. Treated plants and untreated controls were maintained in a greenhouse for 10 days, after which time all treated plants were compared to untreated controls and visually evaluated for injury. Plant response ratings, summarized in Table A, are based on a 0 to 100 scale where 0 is no effect and 100 is complete control. A dash (-) response means no test result.

[2] = test system: foxtail, giant; assay: Test A preemergence; type: in vivo, Setaria faberi
Description: as §1

[3] = test system: goosegrass; assay: Test A preemergence; type: in vivo, Eleusine indica
Description: as §1

[4] = test system: kochia; assay: Test A preemergence; type: in vivo, Bassia scoparia
Description: as §1

[5] = test system: pigweed, palmer; assay: Test A preemergence; type: in vivo, Amaranthus palmeri
Description: as §1

[6] = test system: ragweed; assay: Test A preemergence; type: in vivo, Ambrosia artemisiifolia
Description: as §1

[7] = test system: ryegrass, Italian; assay: Test A preemergence; type: in vivo, Lolium multiflorum
Description: as §1

[8] = test system: soybean; assay: Test A preemergence; type: in vivo, Glycine max
Description: as §1

[9] = test system: wheat; assay: Test A preemergence; type: in vivo, Triticum aestivum
Description: as §1

[10] = test system: blackgrass; assay: Test A postemergence; type: in vivo, Alopecurus myosuroides
Description: as §1

[11] = test system: corn; assay: Test A postemergence; type: in vivo, Zea mays; details: postemergence, 10 days, visual injury, 0 to 100 scale (0 no effect, 100 complete control)
Description: as §1

[12] = test system: foxtail, giant; assay: Test A postemergence; type: in vivo, Setaria faberi
Description: as §1

[13] = test system: goosegrass; assay: Test A postemergence; type: in vivo, Eleusine indica
Description: as §1

[14] = test system: kochia; assay: Test A postemergence; type: in vivo, Bassia scoparia
Description: as §1

[15] = test system: oat, wild; assay: Test A postemergence; type: in vivo, Avena fatua; details: 500 g ai/ha, postemergence, 10 days, visual injury, 0 to 100 scale (0 no effect, 100 complete control)
Description: as §1

[16] = test system: pigweed, palmer; assay: Test A postemergence; type: in vivo, Amaranthus palmeri
Description: as §1

[17] = test system: ragweed; assay: Test A postemergence; type: in vivo, Ambrosia artemisiifolia
Description: as §1

[18] = test system: ryegrass, Italian; assay: Test A postemergence; type: in vivo, Lolium multiflorum
Description: as §1

[19] = test system: soybean; assay: Test A postemergence; type: in vivo, Glycine max; details: 500 g ai/ha, postemergence, 10 days, visual injury, 0 to 100 scale (0 no effect, 100 complete control)
Description: as §1

[20] = test system: wheat; assay: Test A postemergence; type: in vivo, Triticum aestivum; details: 500 g ai/ha, postemergence, 10 days, visual injury, 0 to 100 scale (0 no effect, 100 complete control)
Description: as §1

[21] = test system: galium; assay: Test A postemergence; type: in vivo, Galium aparine
Description: as §1

[22] = test system: horseweed; assay: Test A postemergence; type: in vivo, Erigeron canadensis
Description: as §1

[23] = test system: barnyardgrass; assay: Test B flooded paddy test; type: in vivo, Echinochloa crus-galli; details: 250 g ai/ha, Flood, 13 days, 0 to 100 scale (0 no effect, 100 complete control)
Protocol: (§2) Plant species in the flooded paddy test selected from barnyardgrass (Echinochloa crus-galli), ducksalad (Heteranthera limosa), rice (Oryza sativa), and sedge, umbrella (small-flower umbrella sedge, Cyperus difformis) were grown to the 2-leaf stage for testing. At time of treatment, test pots were flooded to 3 cm above the soil surface, treated by application of test compounds directly to the paddy water, and then maintained at that water depth for the duration of the test. Treated plants and controls were maintained in a greenhouse for 13 days, after which time all species were compared to controls and visually evaluated. Plant response ratings, summarized in Table B, are based on a scale of 0 to 100 where 0 is no effect and 100 is complete control. A dash (-) response means no test result.

[24] = test system: ducksalad; assay: Test B flooded paddy test; type: in vivo, Heteranthera limosa; details: 250 g ai/ha, Flood, 13 days, 0 to 100 scale (0 no effect, 100 complete control)
Protocol: as §2

[25] = test system: rice; assay: Test B flooded paddy test; type: in vivo, Oryza sativa; details: 250 g ai/ha, Flood, 13 days, 0 to 100 scale (0 no effect, 100 complete control)
Protocol: as §2

[26] = test system: sedge, umbrella; assay: Test B flooded paddy test; type: in vivo, Cyperus difformis; details: 250 g ai/ha, Flood, 13 days, 0 to 100 scale (0 no effect, 100 complete control)
Protocol: as §2

[27] = test system: blackgrass; assay: Test A preemergence; type: in vivo, Alopecurus myosuroides; details: 1000 g ai/ha, 0 to 100 scale (0 no effect, 100 complete control), 10 days
Description: as §1

[28] = 125 g ai/ha, visual injury after 10 days, 0 to 100 scale, 0 is no effect, 100 is complete control
[29] = 500 g ai/ha, 0 to 100 scale (0 no effect, 100 complete control), 10 days
[30] = 125 g ai/ha, postemergence, 10 days, visual injury, 0 to 100 scale (0 no effect, 100 complete control)
[31] = 500 g ai/ha, postemergence, 10 days, visual injury, 0 to 100 scale (0 no effect, 100 complete control)
[32] = 1000 g ai/ha, 0 to 100 scale (0 no effect, 100 complete control), 10 days
[33] = 1000 g ai/ha, Postemergence, 0 to 100 scale

CCc1ncn(-c2ccc(C)c(C(=O)N3C[C@H](C)Oc4c(Cl)cccc43)c2)n1 [Compound 75]
Plant response rating, Corn [1, 28]: 40 | Plant response rating, Corn [1, 29]: 50 | Plant response rating, Foxtail, Giant [2, 28]: 100 | Plant response rating, Foxtail, Giant [2, 29]: 100 | Plant response rating, Goosegrass [3, 28]: 100 | Plant response rating, Goosegrass [3, 29]: 100 | Plant response rating, Kochia [4, 28]: 80 | Plant response rating, Kochia [4, 29]: 90 | Plant response rating, Pigweed, Palmer [5, 28]: 100 | Plant response rating, Pigweed, Palmer [5, 29]: 100 | Plant response rating, Ragweed [6, 28]: 0 | Plant response rating, Ragweed [6, 29]: 100 | Plant response rating, Ryegrass, Italian [7, 28]: 100 | Plant response rating, Ryegrass, Italian [7, 29]: 100 | Plant response rating, Soybean [8, 28]: 80 | Plant response rating, Soybean [8, 29]: 100 | Plant response rating, Wheat [9, 28]: 30 | Plant response rating, Wheat [9, 29]: 80 | Plant response rating, Blackgrass [10, 30]: 90 | Plant response rating, Blackgrass ([10]; 500 g ai/ha, Postemergence, 0 to 100 scale): 90 | Plant response rating, Corn ([11]; 125 g ai/ha): 60 | Plant response rating, Corn ([11]; 500 g ai/ha): 90 | Plant response rating, Foxtail, Giant [12, 30]: 90 | Plant response rating, Foxtail, Giant [12, 31]: 100 | Plant response rating, Goosegrass [13, 30]: 70 | Plant response rating, Goosegrass [13, 31]: 90 | Plant response rating, Kochia [14, 30]: 90 | Plant response rating, Kochia [14, 31]: 90 | Plant response rating, Oat, Wild [15]: 90 | Plant response rating, Pigweed, Palmer [16, 31]: 100 | Plant response rating, Ragweed [17, 31]: 80 | Plant response rating, Ryegrass, Italian [18, 31]: 100 | Plant response rating, Soybean [19]: 100 | Plant response rating, Wheat [20]: 60 | Plant response rating, Galium [21, 30]: 100 | Plant response rating, Galium [21, 31]: 100 | Plant response rating, Horseweed [22, 30]: 50 | Plant response rating, Horseweed [22, 31]: 70 | Plant response rating, Barnyardgrass [23]: 50 | Plant response rating, Ducksalad [24]: 70 | Plant response rating, Rice [25]: 10 | Plant response rating, Sedge, Umbrella [26]: 98

O=C(c1ccnc(-n2cncn2)c1)N1CC(C(F)(F)F)Oc2c(Cl)cccc21 (stereo not shown) [Compound 34]
Plant response rating, Blackgrass [27]: 80 | Plant response rating, Foxtail, Giant [2, 32]: 100 | Plant response rating, Goosegrass [3, 32]: 100 | Plant response rating, Kochia [4, 32]: 90 | Plant response rating, Pigweed, Palmer [5, 32]: 100 | Plant response rating, Ragweed [6, 32]: 20 | Plant response rating, Ryegrass, Italian [7, 32]: 90 | Plant response rating, Blackgrass [10, 33]: 70 | Plant response rating, Foxtail, Giant [12, 33]: 100 | Plant response rating, Goosegrass [13, 33]: 50 | Plant response rating, Kochia [14, 33]: 100 | Plant response rating, Pigweed, Palmer [16, 33]: 80 | Plant response rating, Ragweed [17, 33]: 50 | Plant response rating, Ryegrass, Italian [18, 33]: 90 | Plant response rating, Galium [21, 33]: 100 | Plant response rating, Horseweed [22, 33]: 0 | Plant response rating, Barnyardgrass [23]: 0 | Plant response rating, Ducksalad [24]: 0 | Plant response rating, Rice [25]: 0 | Plant response rating, Sedge, Umbrella [26]: 0

Cc1cccc2c1O[C@@H](C(F)(F)F)CN2C(=O)c1cccc(-n2cncn2)c1 (single isomer, unassigned) [Compound 68]
pest or weed control at 1000 g/ha ([27]; Alopecurus myosuroides, pre-emergence, 240 h, read-out: Plant response rating, Blackgrass): 80% | pest or weed control at 1000 g/ha ([2]; Setaria faberi, pre-emergence, 240 h, 1000 g ai/ha, 0 to 100 scale (0 no effect, 100 complete control), 10 days, read-out: Plant response rating, Foxtail, Giant): 100% | pest or weed control at 1000 g/ha ([3]; Eleusine indica, pre-emergence, 240 h, 1000 g ai/ha, 0 to 100 scale (0 no effect, 100 complete control), 10 days, read-out: Plant response rating, Goosegrass): 100% | pest or weed control at 1000 g/ha ([4]; Bassia scoparia, pre-emergence, 240 h, 1000 g ai/ha, 0 to 100 scale (0 no effect, 100 complete control), 10 days, read-out: Plant response rating, Kochia): 90% | pest or weed control at 1000 g/ha ([5]; Amaranthus palmeri, pre-emergence, 240 h, 1000 g ai/ha, 0 to 100 scale (0 no effect, 100 complete control), 10 days, read-out: Plant response rating, Pigweed, Palmer): 100% | pest or weed control at 1000 g/ha ([6]; Ambrosia artemisiifolia, pre-emergence, 240 h, 1000 g ai/ha, 0 to 100 scale (0 no effect, 100 complete control), 10 days, read-out: Plant response rating, Ragweed): 70% | pest or weed control at 1000 g/ha ([7]; Lolium multiflorum, pre-emergence, 240 h, 1000 g ai/ha, 0 to 100 scale (0 no effect, 100 complete control), 10 days, read-out: Plant response rating, Ryegrass, Italian): 100% | pest or weed control at 1000 g/ha ([10]; Alopecurus myosuroides, post-emergence, 240 h, 1000 g ai/ha, Postemergence, 0 to 100 scale, read-out: Plant response rating, Blackgrass): 80% | pest or weed control at 1000 g/ha ([12]; Setaria faberi, post-emergence, 240 h, 1000 g ai/ha, Postemergence, 0 to 100 scale, read-out: Plant response rating, Foxtail, Giant): 90% | pest or weed control at 1000 g/ha ([13]; Eleusine indica, post-emergence, 240 h, 1000 g ai/ha, Postemergence, 0 to 100 scale, read-out: Plant response rating, Goosegrass): 90% | pest or weed control at 1000 g/ha ([14]; Bassia scoparia, post-emergence, 240 h, 1000 g ai/ha, Postemergence, 0 to 100 scale, read-out: Plant response rating, Kochia): 80% | pest or weed control at 1000 g/ha ([16]; Amaranthus palmeri, post-emergence, 240 h, 1000 g ai/ha, Postemergence, 0 to 100 scale, read-out: Plant response rating, Pigweed, Palmer): 50% | pest or weed control at 1000 g/ha ([17]; Ambrosia artemisiifolia, post-emergence, 240 h, 1000 g ai/ha, Postemergence, 0 to 100 scale, read-out: Plant response rating, Ragweed): 60% | pest or weed control at 1000 g/ha ([18]; Lolium multiflorum, post-emergence, 240 h, 1000 g ai/ha, Postemergence, 0 to 100 scale, read-out: Plant response rating, Ryegrass, Italian): 90% | pest or weed control at 1000 g/ha ([21]; Galium, post-emergence, 240 h, 1000 g ai/ha, Postemergence, 0 to 100 scale, read-out: Plant response rating, Galium): 100% | pest or weed control at 1000 g/ha ([22]; Erigeron canadensis, post-emergence, 240 h, 1000 g ai/ha, Postemergence, 0 to 100 scale, read-out: Plant response rating, Horseweed): 0% | pest or weed control at 250 g/ha ([23]; Echinochloa crus-galli, 312 h, read-out: Plant response rating, Barnyardgrass): 0% | pest or weed control at 250 g/ha ([24]; Heteranthera limosa, 312 h, read-out: Plant response rating, Ducksalad): 55% | plant injury at 250 g/ha ([25]; Oryza sativa, 312 h, read-out: Plant response rating, Rice): 0% | pest or weed control at 250 g/ha ([26]; Cyperus difformis, 312 h, read-out: Plant response rating, Sedge, Umbrella): 65%

From patent US20260262643A1, “HERBICIDAL BENZOXAZINES” (FMC CORPORATION, priority 2022, published 2026)
